Results as given in ChEMBL document CHEMBL1201862, “PubChem BioAssay data set” (2004).
Active and inactive are the calls of the source.

Assays:
[1] = biological target: T1, Protein skinhead-1 (Caenorhabditis elegans, UniProt P34707); format: functional
T1 sequence (P34707 whole entry): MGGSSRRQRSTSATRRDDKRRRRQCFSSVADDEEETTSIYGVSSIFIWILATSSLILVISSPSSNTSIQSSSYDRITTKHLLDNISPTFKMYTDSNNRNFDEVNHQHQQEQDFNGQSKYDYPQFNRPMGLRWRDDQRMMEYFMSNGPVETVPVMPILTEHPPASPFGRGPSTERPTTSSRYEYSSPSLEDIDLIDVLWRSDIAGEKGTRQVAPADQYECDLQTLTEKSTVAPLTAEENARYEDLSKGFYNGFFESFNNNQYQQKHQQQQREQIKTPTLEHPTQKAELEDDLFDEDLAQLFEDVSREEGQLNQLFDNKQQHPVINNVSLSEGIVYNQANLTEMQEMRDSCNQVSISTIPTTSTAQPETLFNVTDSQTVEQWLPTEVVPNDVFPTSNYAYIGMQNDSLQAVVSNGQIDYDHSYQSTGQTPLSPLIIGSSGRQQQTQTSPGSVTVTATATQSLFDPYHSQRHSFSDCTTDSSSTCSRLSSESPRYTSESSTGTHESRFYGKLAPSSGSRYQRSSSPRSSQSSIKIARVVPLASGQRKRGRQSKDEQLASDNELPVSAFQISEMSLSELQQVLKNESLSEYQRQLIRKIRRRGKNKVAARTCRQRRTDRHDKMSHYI

[2] = biological target: T2, Corticotropin-releasing factor receptor 2/Corticotropin-releasing factor-binding protein (Homo sapiens, UniProt P24387+Q13324); test: Dose Response confirmation of uHTS hits for small molecule antagonists of the CRF-binding protein and CRF-R2 receptor complex.; format: functional; details: read-out: IC50_Mean
T2 sequence (Q13324 whole entry): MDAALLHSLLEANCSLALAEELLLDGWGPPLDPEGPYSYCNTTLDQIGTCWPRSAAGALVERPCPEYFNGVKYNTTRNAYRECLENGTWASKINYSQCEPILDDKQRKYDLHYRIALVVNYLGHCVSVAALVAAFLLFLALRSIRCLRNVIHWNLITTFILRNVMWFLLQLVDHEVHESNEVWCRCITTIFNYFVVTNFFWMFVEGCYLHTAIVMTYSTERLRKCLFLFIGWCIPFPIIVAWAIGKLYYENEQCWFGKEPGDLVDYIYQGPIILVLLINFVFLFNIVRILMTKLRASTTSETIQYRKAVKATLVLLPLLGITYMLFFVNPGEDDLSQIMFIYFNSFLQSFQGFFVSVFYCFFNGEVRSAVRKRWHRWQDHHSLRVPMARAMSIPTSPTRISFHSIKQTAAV
T2 sequence (P24387 whole entry): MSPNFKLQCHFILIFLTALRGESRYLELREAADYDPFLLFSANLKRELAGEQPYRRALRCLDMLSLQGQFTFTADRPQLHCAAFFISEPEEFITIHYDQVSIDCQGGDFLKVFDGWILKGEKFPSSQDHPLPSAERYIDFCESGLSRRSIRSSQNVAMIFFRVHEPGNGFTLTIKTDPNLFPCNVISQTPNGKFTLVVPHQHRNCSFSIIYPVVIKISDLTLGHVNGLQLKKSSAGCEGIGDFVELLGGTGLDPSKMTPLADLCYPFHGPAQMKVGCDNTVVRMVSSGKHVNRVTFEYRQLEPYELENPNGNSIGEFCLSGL

[3] = biological target: T2, Corticotropin-releasing factor receptor 2/Corticotropin-releasing factor-binding protein; test: activators of CRF receptor 2 with binding protein – uHTS hits, confirmation (AID 602473); format: functional; details: read-out: EC50_Mean
[4] = viability of HCT116 lacking mutant beta-catenin – cell-based, human colon tumor, dose response (AID 1045); format: functional;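 further: HCT116 colon tumor cells with beta catenin knocked out; cells exposed to compound for 60 hours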
[5] = NIH3T3 cell viability loss – ATP luminescence, mouse fibroblasts, counter-screen, dose response (AID 2010); format: functional, cell-based;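 further: cells exposed to compound for about 90 hours before reading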
[6] = Trypanosoma cruzi growth suppression in host cells – NIH3T3 host cells, beta-gal luminescence, confirmation (AID 2044); format: functional, cell-based;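 further: intracellular parasites grown in NIH/3T3 mouse fibroblasts as host cells; luminescent beta-galactosidase reporter signal from transgenic T. cruzi replicating inside host cells; inhibitors lower the luminescence signal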
[7] = viability of PTEN-deleted HCT116 cells – cell-based, HCT116 PTEN knockout, dose response (AID 1047); format: functional;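 further: HCT116 colon tumor cells with PTEN knocked out; cells exposed to compound for 60 hours before readout; potency for loss of cell viability measured by luminescence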
[8] = biological target: Cytochrome P450 2D6 (Homo sapiens, UniProt P10635);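 further: CYP2D6 member of a cytochrome P450 panel assay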
[9] = test system: Streptococcus; test: GAS UMAA2166 growth inhibition – luminescence, BacTiterGlo, counter-screen for streptokinase expression inhibitor project, dose response (AID 1915); format: functional, organism-based;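 further: potency for reduction of bacterial viability or growth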
[10] = test system: Streptococcus sp. 'group A'; test: Streptococcus pyogenes SK(-)GAS viability under kanamycin – luminescence, BacTiterGlo, confirmation, counter-screen for streptokinase expression inhibitor project, dose response (AID 1900); format: functional, organism-based
[11] = biological target: T3, Streptokinase A (Streptococcus pyogenes serotype M1, UniProt P10520); test: viability-normalized secreted streptokinase activity reduction – plasminogen activation absorbance, OD405, dose response (AID 1914); format: functional, Streptococcus pyogenes M1 GAS;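 further: secreted streptokinase activity via plasminogen activation per viability signal from cell pellet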
T3 sequence (P10520 whole entry): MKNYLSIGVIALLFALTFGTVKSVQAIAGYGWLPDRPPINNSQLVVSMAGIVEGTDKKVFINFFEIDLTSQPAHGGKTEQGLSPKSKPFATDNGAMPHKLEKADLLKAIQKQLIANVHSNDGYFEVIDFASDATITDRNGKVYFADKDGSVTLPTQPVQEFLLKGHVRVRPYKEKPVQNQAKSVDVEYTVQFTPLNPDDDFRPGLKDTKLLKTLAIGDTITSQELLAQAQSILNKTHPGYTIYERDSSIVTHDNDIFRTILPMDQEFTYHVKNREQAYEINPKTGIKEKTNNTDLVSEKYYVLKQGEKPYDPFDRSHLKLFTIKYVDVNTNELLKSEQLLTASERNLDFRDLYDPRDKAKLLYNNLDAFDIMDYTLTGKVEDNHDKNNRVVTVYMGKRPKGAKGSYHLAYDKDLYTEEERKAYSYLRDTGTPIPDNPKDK

[12] = Luminescence Cell-Based Dose Retest to Confirm Inhibitors of Cancer Stem Cells. [Related pubchem assays (depositor defined):AID2717, AID2721]; format: functional; details: Homo sapiens
[13] = blockers of HIV-1 envelope-mediated cell-cell fusion – cherry-pick, dose response (AID 652057); format: functional, cell-based
[14] = HIV-1 AD8 envelope cell-cell fusion blockers – cherry-pick, dose response (AID 652062); format: functional, cell-based;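 further: luciferase signal from cell-cell fusion driven by HIV-1 clade B AD8 Env; potency is for inhibitors of fusion seen as a drop in luminescence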
[15] = biological target: T4, Cytochrome P450 1A2 (Homo sapiens, UniProt P05177);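 further: PubChem cytochrome P450 panel assay, CYP1A2 panel member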
T4 sequence (P05177 whole entry): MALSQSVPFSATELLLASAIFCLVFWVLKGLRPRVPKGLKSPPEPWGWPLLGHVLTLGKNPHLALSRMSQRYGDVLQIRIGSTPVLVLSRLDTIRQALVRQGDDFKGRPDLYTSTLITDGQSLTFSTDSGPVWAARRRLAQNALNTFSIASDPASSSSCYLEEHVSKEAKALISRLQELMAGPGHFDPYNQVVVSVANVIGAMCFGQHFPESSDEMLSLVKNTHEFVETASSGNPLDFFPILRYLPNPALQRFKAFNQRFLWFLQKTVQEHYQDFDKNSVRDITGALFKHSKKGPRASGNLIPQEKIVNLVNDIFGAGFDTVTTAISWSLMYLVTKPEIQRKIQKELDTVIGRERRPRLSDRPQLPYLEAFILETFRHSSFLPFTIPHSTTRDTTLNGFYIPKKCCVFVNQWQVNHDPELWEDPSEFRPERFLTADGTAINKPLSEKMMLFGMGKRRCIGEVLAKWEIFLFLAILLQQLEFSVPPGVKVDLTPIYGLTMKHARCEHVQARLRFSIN

[16] = biological target: Cytochrome P450 3A4 (Homo sapiens, UniProt P08684);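 further: CYP3A4 tested as one member of a cytochrome P450 panel screen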
[17] = biological target: Cytochrome P450 2C9 (Homo sapiens, UniProt P11712)
[18] = biological target: Cytochrome P450 2C19 (Homo sapiens, UniProt P33261); test: Cytochrome panel assay with activity outcomes. Panel member name: p450-cyp2c19 Compounds with AC50 equal or less than 10 uM are considered active; format: functional; details: read-out: AC50
Sequence of Cytochrome P450 2C19 (P33261 whole entry): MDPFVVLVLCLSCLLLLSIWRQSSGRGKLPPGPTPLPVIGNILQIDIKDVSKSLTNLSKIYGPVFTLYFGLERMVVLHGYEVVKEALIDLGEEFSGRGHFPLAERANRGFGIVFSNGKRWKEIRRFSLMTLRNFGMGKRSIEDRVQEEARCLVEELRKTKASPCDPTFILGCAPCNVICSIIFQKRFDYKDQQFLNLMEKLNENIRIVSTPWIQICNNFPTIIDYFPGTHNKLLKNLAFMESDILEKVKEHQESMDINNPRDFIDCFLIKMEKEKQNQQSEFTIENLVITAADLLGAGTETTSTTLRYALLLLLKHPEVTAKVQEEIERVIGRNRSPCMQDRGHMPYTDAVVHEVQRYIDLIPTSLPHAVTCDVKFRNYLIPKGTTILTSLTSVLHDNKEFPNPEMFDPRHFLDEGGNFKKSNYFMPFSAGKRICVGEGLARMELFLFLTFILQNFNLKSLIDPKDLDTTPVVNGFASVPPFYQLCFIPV

Sequence of Cytochrome P450 2D6 (P10635 whole entry): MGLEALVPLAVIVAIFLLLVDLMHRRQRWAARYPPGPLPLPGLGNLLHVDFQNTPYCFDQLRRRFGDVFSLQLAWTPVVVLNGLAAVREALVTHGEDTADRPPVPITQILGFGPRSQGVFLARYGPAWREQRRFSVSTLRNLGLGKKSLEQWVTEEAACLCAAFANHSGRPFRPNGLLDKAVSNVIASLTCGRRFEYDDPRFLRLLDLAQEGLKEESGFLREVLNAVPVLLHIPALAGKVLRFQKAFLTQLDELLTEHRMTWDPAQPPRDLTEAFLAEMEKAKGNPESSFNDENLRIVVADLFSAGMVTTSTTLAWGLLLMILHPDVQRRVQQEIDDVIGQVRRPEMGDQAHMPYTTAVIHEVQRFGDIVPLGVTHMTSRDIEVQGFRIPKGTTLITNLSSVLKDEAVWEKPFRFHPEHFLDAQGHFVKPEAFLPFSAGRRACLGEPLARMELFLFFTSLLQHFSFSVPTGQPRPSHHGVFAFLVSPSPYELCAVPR
Sequence of Cytochrome P450 2C9 (P11712 whole entry): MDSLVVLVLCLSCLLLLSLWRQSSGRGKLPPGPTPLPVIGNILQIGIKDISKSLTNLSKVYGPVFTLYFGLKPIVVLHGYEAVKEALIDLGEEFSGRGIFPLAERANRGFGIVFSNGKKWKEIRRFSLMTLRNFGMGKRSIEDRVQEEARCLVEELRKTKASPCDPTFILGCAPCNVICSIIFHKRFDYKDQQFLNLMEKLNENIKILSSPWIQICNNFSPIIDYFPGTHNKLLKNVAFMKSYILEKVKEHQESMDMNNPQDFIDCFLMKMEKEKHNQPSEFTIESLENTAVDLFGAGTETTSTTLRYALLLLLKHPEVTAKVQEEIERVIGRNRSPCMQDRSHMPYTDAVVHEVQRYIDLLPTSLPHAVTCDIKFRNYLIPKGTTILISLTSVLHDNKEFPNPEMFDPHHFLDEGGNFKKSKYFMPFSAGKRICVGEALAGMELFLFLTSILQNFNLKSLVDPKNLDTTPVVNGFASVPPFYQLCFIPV
Sequence of Cytochrome P450 3A4 (P08684 whole entry): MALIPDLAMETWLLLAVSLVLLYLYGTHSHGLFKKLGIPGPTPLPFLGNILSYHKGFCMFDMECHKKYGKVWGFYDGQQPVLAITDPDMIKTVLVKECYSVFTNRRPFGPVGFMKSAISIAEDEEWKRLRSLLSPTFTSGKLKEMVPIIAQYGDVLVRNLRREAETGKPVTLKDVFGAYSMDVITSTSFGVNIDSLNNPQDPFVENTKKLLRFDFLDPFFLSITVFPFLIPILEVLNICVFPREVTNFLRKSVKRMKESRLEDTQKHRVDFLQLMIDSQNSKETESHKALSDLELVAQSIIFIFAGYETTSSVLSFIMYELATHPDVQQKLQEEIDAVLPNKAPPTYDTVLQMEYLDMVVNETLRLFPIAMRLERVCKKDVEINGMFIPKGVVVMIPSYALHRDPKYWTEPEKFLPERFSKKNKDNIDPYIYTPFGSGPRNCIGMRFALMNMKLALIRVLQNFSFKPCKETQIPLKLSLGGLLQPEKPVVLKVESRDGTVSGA

## CCSc1nnc(-c2ccc(Cl)cc2Cl)o1
[1]
  IC50: 29.7 µM (active)

## Cc1ccc(NS(=O)(=O)c2cccc3nsnc23)cc1
[2]
  IC50: > 47.1 µM (inactive)
[3]
  EC50: > 53 µM (inactive)

## Cc1cccc(N(CC(O)CON=C2c3ccccc3-c3ccccc32)S(C)(=O)=O)c1 (stereo not given)
[4]
  EC50: 29.6 µM (active)
[5]
  EC50: > 60 µM (not active)
[6]
  EC50: 3.22 µM (active)
[7]
  EC50: 28.8 µM (active)

## COCCN1C(=O)CC(NNC(=O)c2ccc(S(=O)(=O)N3CCCC3)cc2)C1=O (stereo not given)
[1]
  IC50: > 100 µM (inactive)

## COc1cnc(SCc2ccc(Cl)cc2)nc1Cl
[8]
  AC50: 17.8 µM (inconclusive)

## FC(F)(F)C1=CC(c2ccc(Cl)cc2)=NCCN1
[1]
  IC50: > 100 µM (inactive)

## CCOc1ccc(NC(=O)C2CCCN(S(=O)(=O)c3c(C)nn(C)c3C)C2)cc1 (stereo not given)
[1]
  IC50: > 100 µM (inactive)

## CN(/N=C/c1ccc(Cl)cc1Cl)c1ncc(Cl)cc1C(F)(F)F
[2]
  IC50: > 47.1 µM (inactive)
[3]
  EC50: > 53 µM (inactive)
[9]
  EC50: > 150 µM (not active)
[10]
  EC50: 16.9 µM (active)
[11]
  EC50: 21.2 µM (active)

## FC(F)(F)c1cccc(-c2nc(-c3ccncc3)no2)c1
[1]
  IC50: > 100 µM (inactive)

## COc1cc(C[C@H](C)[C@H](C)Cc2ccc3c(c2)OCO3)ccc1O [AUSTROBAILIGNAN 6]
[2]
  IC50: > 47.1 µM (inactive)
[3]
  EC50: > 53 µM (inactive)
[12]
  AC50: 5.23 µM (active)

## COc1ccc(Cl)cc1C(=O)Nc1ccccc1N1CCCCC1
[1]
  IC50: > 100 µM (inactive)

## N#CCC(=O)Nc1ccc(C(=O)OCC(=O)NNC(=O)c2cccs2)cc1
[2]
  IC50: > 47.1 µM (inactive)
[3]
  EC50: > 53 µM (inactive)

## Cc1ccc(CCNC(=O)c2coc3nc4ccccc4nc23)cc1
[1]
  IC50: > 100 µM (inactive)

## CCOC(=O)c1c(NC(=O)c2cc3n(n2)C(C(F)(F)F)CC(c2cccs2)N3)sc(C)c1C (stereo not given)
[4]
  EC50: 2.59 µM (active)
[7]
  EC50: 2.45 µM (active)

## COc1ccc(CN2CCCC(C(=O)c3cccc(Cl)c3)C2)cc1 (stereo not given)
[1]
  IC50: > 100 µM (inactive)

## CCNC(=O)C[C@H]1CC[C@@H]2[C@@H](COc3ccc(NC(=O)Nc4cccc(OC)c4)cc3C(=O)N2C)O1
[13]
  AC50: 37.7 µM (active)
[14]
  AC50: 50.2 µM (active)

## O=C(c1ccc(COc2ccc(F)cc2)o1)n1cccn1
[8]
  AC50: 0.00562 µM (inconclusive)

## CO[C@H]1C=C2CCN(C)[C@@H]2[C@@H]2c3cc4c(cc3C(=O)O[C@H]21)OCO4
[8]
  AC50: 10 µM (inconclusive)
[15]
  AC50: 12.6 µM (inconclusive)

## Cc1ccc(-c2nc(CSCC(=O)N3CCN(c4ccccn4)CC3)c(C)o2)cc1
[4]
  EC50: 17.1 µM (active)
[7]
  EC50: 35 µM (active)

## CN(C)c1ncc2nc(CCc3ccccc3)c(=O)n(C3CC3)c2n1
[16]
  AC50: 10 µM (inconclusive)
[8]
  AC50: 10 µM (inconclusive)

## N#Cc1c(NC(=O)C(F)(F)F)sc2c3c(=O)c4ccccc4c(=O)c=3oc3ccccc3c12
[16]
  AC50: 3.98 µM (inconclusive)
[8]
  AC50: 0.794 µM (inconclusive)

## CC(C)CC1CC(=O)OC1(C)C(=O)CSc1nc2ccccc2s1 (stereo not given)
[8]
  AC50: 3.55 µM (inconclusive)

## CCCCCC1=C2CNC(C)(C(=O)OC)C=C2C(C)C1=O (stereo not given)
[17]
  AC50: 31.6 µM (inconclusive)
[8]
  AC50: 25.1 µM (inconclusive)
[15]
  AC50: 25.1 µM (inconclusive)

## O=C(OC[C@@H](O)CO)c1ccccc1Nc1ccnc2cc(Cl)ccc12
[17]
  AC50: 15.8 µM (inconclusive)
[8]
  AC50: 12.6 µM (inconclusive)
[18]
  AC50: 3.98 µM (inconclusive)

## C[C@H]1CN([C@@H](C)CO)C(=O)c2ccccc2-c2ccccc2CO[C@H]1CN(C)Cc1cccc(F)c1
[13]
  AC50: < 0.26 µM (active)
[14]
  AC50: 0.416 µM (active)

## CN1CCC(N(C)CC(=O)Nc2ccccc2N2CCOCC2)CC1
[1]
  IC50: > 100 µM (inactive)

## O=C(CCc1nnc2ccc(NCc3ccco3)nn12)N1CCN(c2ccccc2F)CC1
[2]
  IC50: > 47.1 µM (inactive)
[3]
  EC50: > 53 µM (inactive)

## O=C(Nc1nc2ccc(Cl)cc2s1)c1ccc(N2CCCCC2)c([N+](=O)[O-])c1
[4]
  EC50: 13.5 µM (active)
[7]
  EC50: 12.2 µM (active)

## Cc1cccc2cc(C#N)c(N3CCCC3)nc12
[1]
  IC50: > 100 µM (inactive)

## O=[N+]([O-])c1cccc(COc2ccc(CN3CCOCC3)cc2)c1
[2]
  IC50: > 47.1 µM (inactive)
[3]
  EC50: > 53 µM (inactive)

## c1ccc(-c2noc(CN3CCN(c4cnccn4)CC3)n2)cc1
[2]
  IC50: > 47.1 µM (inactive)
[3]
  EC50: > 53 µM (inactive)

## CCc1cc2cc(C)cc(C)c2nc1SCC(=O)N1CCN(C(=O)c2ccco2)CC1
[2]
  IC50: > 47.1 µM (inactive)
[3]
  EC50: > 53 µM (inactive)
[12]
  AC50: 12.8 µM (active)

## O=C(Nc1ccc(OC(F)(F)F)cc1)c1n[nH]c(Cn2cncn2)n1
[17]
  AC50: 11.2 µM (inconclusive)
[16]
  AC50: 15.8 µM (inconclusive)
[8]
  AC50: 20 µM (inconclusive)
[18]
  AC50: 2.51 µM (inconclusive)

## COc1ccc(S(=O)(=O)N(c2onc(C)c2Cl)S(=O)(=O)c2ccc(OC)cc2)cc1
[2]
  IC50: > 47.1 µM (inactive)
[3]
  EC50: > 53 µM (inactive)

## Cc1ccc(C(=O)/C=C/c2ccc(Br)cc2)o1
[4]
  EC50: 6.62 µM (active)
[7]
  EC50: 8.44 µM (active)

## COc1ccc(-c2c3c(nc4sc5c(Cl)nc(C)nc5c24)CCC3)cc1
[4]
  EC50: 1.59 µM (active)
[7]
  EC50: 4.46 µM (active)
